In the supplement of paper PMC10307832:

Key:
Assay in all cases: relative viability (nuclei count vs DMSO), 5 days (fraction); higher = more cells survive
[1] = compound: CC(C)(C)c1nc(-c2cccc(NS(=O)(=O)c3c(F)cccc3F)c2F)c(-c2ccnc(N)n2)s1 [Dabrafenib] + CCNC(=O)c1noc(-c2cc(C(C)C)c(O)cc2O)c1-c1ccc(CN2CCOCC2)cc1 [Luminespib] (partner 0.01 µM)
How it was run: (§1)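 Relative viability divides the nuclei count in treated wells by that in vehicle wells. Lung cancer cell lines were seeded in 1536-well plates, dosed by pin tool the next day, and fixed and stained after 5 days in one step with final 0.05% Triton X-100, 1% formaldehyde and 1 ug/ml Hoechst. Dosing was a single drug or a fixed anchor-drug dose plus five library-drug doses (not always all listed) in √10 steps, and values are medians of duplicate plates imaged at 4×.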

[2] = compound: NC(=O)c1ccc(N(C(N)=O)c2c(F)cccc2F)nc1-c1ccc(F)cc1F [VX-702] + CC(=O)c1c(C)c2cnc(Nc3ccc(N4CCNCC4)cn3)nc2n(C2CCCC2)c1=O [Palbociclib] (partner 0.5 µM)
How it was run: as §1

[3] = compound: CC(C)(C)c1nc(-c2cccc(NS(=O)(=O)c3c(F)cccc3F)c2F)c(-c2ccnc(N)n2)s1 [Dabrafenib] + CC(=O)c1c(C)c2cnc(Nc3ccc(N4CCNCC4)cn3)nc2n(C2CCCC2)c1=O [Palbociclib] (partner 0.5 µM)
How it was run: as §1

[4] = compound: CC(C)(C)c1nc(-c2cccc(NS(=O)(=O)c3c(F)cccc3F)c2F)c(-c2ccnc(N)n2)s1 [Dabrafenib] + NC(=O)Nc1cc(-c2cccc(F)c2)sc1C(=O)N[C@H]1CCCNC1 [AZD7762] (partner 0.2 µM)
How it was run: as §1

Cell Line	relative viability ([1]; first compound 0.009487 µM)	relative viability ([1]; first compound 0.3 µM)	relative viability ([2]; first compound 0.02 µM)	relative viability ([2]; first compound 0.6325 µM)	relative viability ([2]; first compound 2 µM)	relative viability ([3]; first compound 0.009487 µM)	relative viability ([3]; first compound 0.09487 µM)	relative viability ([3]; first compound 0.3 µM)	relative viability ([4]; first compound 0.009487 µM)	relative viability ([4]; first compound 0.09487 µM)	relative viability ([4]; first compound 0.3 µM)	relative viability ([1]; first compound 0.003 µM)	relative viability ([1]; first compound 0.03 µM)	relative viability ([1]; first compound 0.09487 µM)	relative viability ([2]; first compound 0.2 µM)	relative viability ([3]; first compound 0.003 µM)	relative viability ([3]; first compound 0.03 µM)	relative viability ([4]; first compound 0.003 µM)	relative viability ([4]; first compound 0.03 µM)
NCI-H1793	0.231	0.175	0.294	0.314	0.269	0.411	0.289	0.291	0.489	0.493	0.434	–	–	–	–	–	–	–	–
NCI-H1915	0.706	0.62	0.549	0.526	0.546	0.579	0.417	0.508	0.653	0.268	0.282	0.981	0.61	0.523	0.499	0.52	0.447	0.712	0.368
NCI-H1944	0.839	0.717	0.303	0.337	0.32	0.342	0.319	0.318	0.537	0.457	0.555	0.707	0.733	0.682	0.326	0.325	0.326	0.219	0.397
NCI-H1975	0.189	0.191	0.497	0.518	0.624	0.581	0.456	0.384	0.788	0.505	0.78	0.159	0.165	0.278	0.446	0.437	0.553	0.481	0.734
NCI-H1993	0.984	1.06	0.655	0.69	0.745	0.786	0.664	0.701	0.968	0.716	0.826	0.68	0.812	0.828	0.696	0.672	0.746	0.555	0.792
NCI-H2085	0.484	0.51	0.507	0.506	0.516	0.463	0.471	0.456	1.11	0.874	1.01	0.402	0.453	0.428	0.46	0.455	0.501	0.724	1.01
NCI-H2087	0.202	0.207	0.203	0.214	0.225	0.218	0.235	0.208	1.24	0.928	1	–	0.163	0.154	0.228	–	0.246	–	1.11
NCI-H2126	0.878	0.913	0.365	0.341	0.35	0.333	0.359	0.382	1.11	0.94	1.01	0.964	0.965	0.936	0.323	0.294	0.373	0.872	1.02
NCI-H2170	0.792	0.604	0.355	0.42	0.369	0.377	0.377	0.397	0.841	0.64	0.745	0.759	0.73	0.568	0.374	0.429	0.383	0.282	0.616
NCI-H2342	0.563	0.842	0.511	0.512	0.539	0.566	0.608	0.523	0.486	0.481	0.55	0.666	0.707	0.769	0.606	0.511	0.474	0.364	0.417
NCI-H2347	0.508	0.458	0.455	0.466	0.476	0.513	0.476	0.432	0.63	0.605	0.598	–	0.231	0.71	0.473	–	0.471	–	0.562
NCI-H2405	0.619	0.642	0.536	0.457	0.493	0.555	0.491	0.485	0.805	0.597	0.598	–	–	0.528	0.515	–	0.374	–	0.592
NCI-H3122	0.0926	0.0575	0.243	0.184	0.215	0.207	0.167	0.181	1.03	0.986	1.07	0.0822	0.0643	0.131	0.19	0.186	0.2	0.508	1.06
PC-3 [JPC-3]	0.649	0.696	0.568	0.566	0.553	0.571	0.534	0.55	1.02	1.02	1.07	0.782	0.655	0.736	0.517	–	0.6	–	0.857
PC-14	0.272	0.115	0.519	0.561	0.732	0.643	0.522	0.65	0.375	0.297	0.414	–	0.158	0.149	0.595	–	0.618	0.0746	0.363
RERF-LC-KJ	1.3	1.25	1	1.14	1.19	1.09	1.02	1.13	1.01	0.916	1.35	1.31	1.26	1.31	1.57	1.11	1.13	0.871	0.907
